Experimental data as given in patent US20170050934A1 (priority 2014, published 2017).

Assays:
[1] = system: Botrytis cinerea AARF-033; test: Antimicrobial activity test against rice Botrytis cinerea (conidia, 96 well microplate); type: cell-based; settings: AARF033, 96 h, conidia 1×10^4 conidia/ml in potato-glucose broth, 25° C. for 4 days
Excerpt: Test specimen (compound (A2-1) and compound (A5-1)) and reference agents i.e. iprodione and captan, were, respectively, dissolved in dimethyl sulfoxide (DMSO) and adjusted to 10,000 ppm. To a flat bottom 96 well microplate, 2 μ/ml of each test solution was dispensed, and then, 198 μ/ml of conidia of rice Botrytis cinerea (Botrytis cinerea AARF-033) cultured on a potato-glucose agar medium, and suspended in a potato-glucose broth and adjusted to 1×10^4 conidia/ml, were dispensed, followed by stirring by a micro mixer. At that time, the concentration of each test specimen and reference agent, was 100 ppm. Thereafter, culturing under standing-still condition was conducted at 25° C. for 4 days, whereby the antimicrobial activities were evaluated.

[2] = system: rice blast fungus (Magnaporthe grisea); test: microbe, parasite or virus in culture; type: cell-based; settings: Pyricularia oryzae, read-out: antimicrobial activity, inhibition of Magnaporthe grisea

Compound | inhibition at 100 ppm [1] [%] | inhibition at 100 ppm [2] [%]
CCOC(=O)c1cnc(-c2ccccc2)nc1C(F)(OC(F)(F)C(F)(F)C(F)(F)F)C(F)(F)F (centres unmarked) [Compound A2-1] | ≥ 95 | ≥ 95
Nc1cnc(-c2ccccc2)nc1C(F)(F)OC(F)(F)C(F)(F)OC(F)(F)C(F)(F)F [Compound A5-1] | ≥ 95 | ≥ 95
CCCCNC(=O)n1c(NC(=O)OC)nc2ccccc21 [Benomyl, benomyl] | – | ≥ 95
O=C1C2CC=CCC2C(=O)N1SC(Cl)(Cl)Cl (centres unmarked) [Captan, captan] | ≥ 95 | –
CO/N=C(/C1=NOCCO1)c1ccccc1Oc1ncnc(Oc2ccccc2Cl)c1F [Fluoxastrobin, fluoxastrobin] | – | ≥ 95
CC(C)NC(=O)N1CC(=O)N(c2cc(Cl)cc(Cl)c2)C1=O [Iprodione, iprodione] | ≥ 95 | –
